Experiment [1] deals with male C57BL/6 mice. The experiment in a line: Murine model of endotoxin induced uveitis. The experiment is classed as in vivo, mouse. The following applies: 0.1 μg intravitreal co-injected with LPS; about 15 hours after endotoxin; FIG. 5. As to the method:
The efficacy of locally applied Nalidixic acid as a potential treatment for uveitis was explored. Experimental uveitis was induced in male C57BL/6 mice (n=5 animals per group) by the intravitreal injection of the endotoxin lipopolysaccharide (LPS 0.5 ng/ml) co-injected with either vehicle (phosphate buffered saline) or Nalidixic acid at a final concentration of 0.1 μg into alternate eyes. The other eye acting as control. The inflammatory response in this model is characterised by invasion of inflammatory cells and in particular invasion of neutrophils into the retina peaks at approximately 15 hours after endotoxin treatment at which time the animals were culled. Retinas from the animals were dissected and digested into a single cell suspension. Cell numbers from retinal tissue were measured by fluorescence-activated cell sorting (FACS) analysis.

The test system of experiment [2] is Human derived cord mast cells. As to the kind of experiment: Inhibition of histamine release from human mast cells. The following applies: IgE challenged human cord derived mast cells, 5 min incubation; FIG. 1. The experiment is classed as cell-based. Here is the method:
Protocol: Human derived cord mast cells were cultured using the following method. Commercially available CD34^+ stem cells were cultured for […] in StemSpan (StemCell Technologies, Grenoble, France) serum-free medium supplemented with 100 ng/ml human SCF, 50 ng/ml IL-6 and 1 ng/ml IL-3, and 100 μg/ml penicillin/streptomycin (Peprotech, London, UK). After eight weeks, cells were cultured in StemSpan with 10% FCS. The cells were passaged into new medium every week. Cells were used for experiments between 11 and 18 weeks following confirmation by microscopic examination, c-kit and FcRε1 staining (by FACS), of mast cell morphology. For assessment of drug effects, Nalidixic acid was incubated for 5 min with aliquots of 2×10^5 CDMCs (cord derived mast cells) cultured in 10% FCS medium. A commercially-available enzyme immunoassay was used to detect and quantify histamine released in the supernatant (SPI bio, Strasbourg, France). The assay was conducted following the manufacturer's standard protocols. A standard curve ranging from 0.39-50 nM histamine was prepared using the reagent provided and the optical density was then read within 60 min in a microplate reader (at 405 nm). In some cases, the total cell content of histamine was established by freeze thawing of cells prior to challenge.

The test system of experiment [3] is Human cord derived mast cells. The experiment in a line: Inhibition of Prostaglandin D2 release from human mast cells. In kind it is cell-based. The following applies: IgE challenged human cord derived mast cells; FIG. 2. As to the method: Human cord derived mast cells were cultured using the methodology described in Example 1. A commercially-available enzyme immunoassay (Cayman Chemical, Michigan, USA) was used to detect and quantify PGD2 released in the supernatant. The assay was conducted following the manufacturer's standard protocols. A standard curve ranging from 78-10,000 pg/ml PGD2 was prepared using the reagent provided and the optical density was then read within 60 min in a microplate reader (at 405 nm).

Experiment [4] concerns Mice (Balb/C strain). The experiment in a line: Murine model of allergic conjunctivitis (ragweed pollen). In kind it is in vivo, mouse. The following applies: 40 μl of a 2% solution twice daily to the eye. Here is the method:
Mice (Balb/C strain) were sensitised to ragweed pollen by injection of the extract mixed with alum into the hind paw. A control group was immunised with alum alone. Five animals were used in each group.
Eleven days after the initial immunisation with ragweed pollen extract the mice were challenged daily with Ragweed pollen by application to the eye (150 mg/ml antigen) and dosed twice daily (prior and after challenge with ragweed extract) with either Phosphate buffered saline (PBS, control) or 40 μl of a 2% solution of Nalidixic acid. All applications were to the left eye with the right eye acting as a control.
Conjunctivitis was assessed on the 10th day 1 hour after the final application of the ragweed antigen. This assessment was performed by an operator unaware of the dosing protocol for the animals.
Clinical scores of each group were compared statistically using the non-parametric Kruskal-Wallis test with Dunns multiple comparison test correction applied (FIG. 4).
In addition, histological analysis of sections of the conjunctiva was used to assess the number of migrating eosinophils into the tissue, a key measure of the inflammatory process.

In experiment [5] the test system is Human cord derived mast cells. The experiment in a line: Release of Annexin-A1 from human mast cells (ELISA). The following applies: increasing concentrations, conditioned medium, FIG. 3. The experiment is classed as cell-based. Here is the method:
Human cord derived mast cells were cultured using the methodology described in Example 1. Anx-A1 protein levels in conditioned medium were determined by ELISA. Briefly, 96-well flat-bottomed ELISA plates (Greiner, Gloucestershire, UK) were coated with 1 μg anti-Anx-A1 mAb 1B in bicarbonate buffer (pH 9.6) and incubated overnight at 4° C. After washing in the bicarbonate buffer, potentially uncoated sites were blocked with 100 μL of PBS containing 1% BSA for 1 h at room temperature. Sample aliquots (100 μL) or Anx-A1 standard solutions (prepared in 0.1% Tween-20 in PBS; concentration ranging between 10 and 0.001 μg/mL) were added for 1 h at 37° C. After extensive washing in PBS/Tween-20, 100 μL of a polyclonal rabbit anti-human Anx-A1 serum (Zymed, Invitrogen, Paisley, UK; diluted 1:1000 in PBS/Tween-20) was added (1 h at 37° C.) prior to incubation with donkey anti-rabbit 1 gG conjugated to alkaline phosphatase (1:1000; Sigma). The colour was developed by addition of 100 μL p-nitrophenyl phosphate (1 mg/mL in bicarbonate buffer, pH 9.6). Absorbance was read at 405 nm (with a 620-nm reference filter) in a microplate reader (TitertekTM, Vienna, Austria). Anx-A1 levels in the study samples were read against the standard curve and expressed as ng/ml.
In general terms: In an ELISA, binding on a coated surface is turned into a signal by an enzyme label.

Experiment [6] deals with phosphatase PP2A. The experiment in a line: Inhibition of the phosphatase PP2A. The experiment is classed as biochemical. The following applies: statement in summary, no method or data given.

From patent publication US20160051526A1, “The Local Treatment of Inflammatory Ophthalmic Disorders” (CRESSET BIOMOLECULAR DISCOVERY LTD, priority 2013, published 2016) come the findings set out here.

On to `CCn1cc(C(=O)O)c(=O)c2ccc(C)nc21` [Nalidixic acid], for which, in experiment [1], the “invading neutrophils in retinal tissue (FACS)” value is given as “clear reduction in invading neutrophils”. In experiment [2], the “inhibition of the inflammatory mediator histamine (% net histamine release)” value was “dose related inhibition”. Moreover, the “inhibition of the inflammatory prostanoid PGD2 release” value in experiment [3] is “dose related inhibition”. Further, the “clinical scores of conjunctivitis” value in experiment [4] (assessed 10th day, 1 hour after final ragweed challenge, FIG. 4) is recorded as “significant attenuation of the development of conjunctivitis”. Further, the “number of migrating eosinophils in conjunctival tissue (histology)” value in experiment [4] (p<0.001 vs immunised PBS control) was “no migrating eosinophils”. Besides, the “Annexin-A1 released from human mast cells” value in experiment [5] is reported as “increase”. The “inhibition of the phosphatase PP2A” value in experiment [6] is “potent inhibitors”.
